In assay [1] the target is T1, Tyrosine-protein kinase ITK/TSK (Homo sapiens, UniProt Q08881).
T1 sequence (Q08881 whole entry): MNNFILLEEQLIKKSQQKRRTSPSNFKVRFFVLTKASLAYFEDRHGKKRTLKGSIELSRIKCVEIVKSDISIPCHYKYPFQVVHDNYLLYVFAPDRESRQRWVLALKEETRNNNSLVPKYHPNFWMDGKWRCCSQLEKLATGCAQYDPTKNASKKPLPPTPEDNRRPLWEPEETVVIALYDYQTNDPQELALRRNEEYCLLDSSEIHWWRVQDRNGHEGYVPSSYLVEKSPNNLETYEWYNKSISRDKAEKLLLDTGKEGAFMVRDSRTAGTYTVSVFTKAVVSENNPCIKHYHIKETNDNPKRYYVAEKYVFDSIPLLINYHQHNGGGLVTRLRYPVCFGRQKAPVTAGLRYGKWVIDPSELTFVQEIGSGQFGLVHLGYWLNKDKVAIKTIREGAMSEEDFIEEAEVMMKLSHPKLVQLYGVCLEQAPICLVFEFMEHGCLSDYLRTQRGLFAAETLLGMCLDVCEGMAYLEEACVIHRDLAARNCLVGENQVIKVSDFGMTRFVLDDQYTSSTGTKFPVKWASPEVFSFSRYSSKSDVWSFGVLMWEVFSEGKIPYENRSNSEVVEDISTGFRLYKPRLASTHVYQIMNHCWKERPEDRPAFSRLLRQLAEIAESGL
Put plainly: Inhibition of GST-tagged full length recombinant ITK after 2 hrs by IMAP assay.

Assay [2] addresses Cyclin-dependent kinase 2/cyclin E1 (Homo sapiens, UniProt P24941). Put plainly: (§1) Inhibition of GST-tagged full length CDK2/Cyclin E after 40 mins by IMAP assay. The format is protein-complex assay.
The target in the next assay is Insulin receptor (Homo sapiens, UniProt P06213). The assay is described as follows: Inhibition of GST-tagged recombinant INSR catalytic domain expressed in baculovirus-infected Sf21 cells after 80 mins by IMAP assay.
Insulin receptor, sequence (P06213 28-758 limits assumed): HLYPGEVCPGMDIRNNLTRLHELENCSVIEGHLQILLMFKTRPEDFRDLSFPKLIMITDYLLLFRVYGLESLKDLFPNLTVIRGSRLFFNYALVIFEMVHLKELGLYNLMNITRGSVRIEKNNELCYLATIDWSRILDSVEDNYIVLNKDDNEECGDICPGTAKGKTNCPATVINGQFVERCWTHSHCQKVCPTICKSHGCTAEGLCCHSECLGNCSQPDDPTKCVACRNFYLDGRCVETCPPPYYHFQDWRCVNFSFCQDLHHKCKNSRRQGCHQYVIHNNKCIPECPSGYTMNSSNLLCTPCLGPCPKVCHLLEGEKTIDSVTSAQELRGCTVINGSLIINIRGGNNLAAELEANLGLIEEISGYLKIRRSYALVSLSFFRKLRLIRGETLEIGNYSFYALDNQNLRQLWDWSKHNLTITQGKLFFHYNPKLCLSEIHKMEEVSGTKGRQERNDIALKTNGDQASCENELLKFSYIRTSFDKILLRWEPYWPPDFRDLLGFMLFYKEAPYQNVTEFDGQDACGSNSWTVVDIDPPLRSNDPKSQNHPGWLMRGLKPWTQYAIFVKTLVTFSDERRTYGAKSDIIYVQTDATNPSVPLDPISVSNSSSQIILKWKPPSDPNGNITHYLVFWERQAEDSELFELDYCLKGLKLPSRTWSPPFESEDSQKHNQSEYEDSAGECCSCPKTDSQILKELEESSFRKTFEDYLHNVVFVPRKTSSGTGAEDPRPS
Insulin receptor, sequence (P06213 763-1382 limits assumed): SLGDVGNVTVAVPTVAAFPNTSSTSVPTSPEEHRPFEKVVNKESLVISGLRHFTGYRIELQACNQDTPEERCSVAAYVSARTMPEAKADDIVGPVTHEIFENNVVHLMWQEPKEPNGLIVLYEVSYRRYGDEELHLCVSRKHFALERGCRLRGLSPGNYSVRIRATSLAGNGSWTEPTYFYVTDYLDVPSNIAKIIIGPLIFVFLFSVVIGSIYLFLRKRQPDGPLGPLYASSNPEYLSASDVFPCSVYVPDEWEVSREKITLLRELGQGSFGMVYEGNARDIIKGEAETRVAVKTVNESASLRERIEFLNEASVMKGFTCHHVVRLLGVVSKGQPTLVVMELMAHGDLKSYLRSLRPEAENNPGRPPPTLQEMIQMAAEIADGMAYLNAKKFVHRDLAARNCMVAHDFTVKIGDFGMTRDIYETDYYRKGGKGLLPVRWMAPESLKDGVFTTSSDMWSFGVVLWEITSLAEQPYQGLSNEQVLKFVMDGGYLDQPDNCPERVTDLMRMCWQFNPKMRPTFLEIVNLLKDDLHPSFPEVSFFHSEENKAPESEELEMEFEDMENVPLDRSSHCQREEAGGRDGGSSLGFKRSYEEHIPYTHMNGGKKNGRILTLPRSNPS
Assay [3] in a line: Inhibition of histidine-tagged PKA catalytic domain after 40 mins by IMAP assay.
Assay [4] has as its target Glycogen synthase kinase-3 beta (Homo sapiens, UniProt P49841). The assay is described as follows: Inhibition of GST-tagged full length GSK3-beta assessed as inhibition of ATP consumption after 60 mins by luminescence assay.
Assay [5] has as its target Cyclin-dependent kinase 2/cyclin E1 (Homo sapiens, UniProt P24864+P24941). The assay is described as §1. The format is protein-complex assay.
The target of assay [6] is RAC-alpha serine/threonine-protein kinase (Homo sapiens) (UniProt P31749). The assay is described as follows: Inhibition of histidine-tagged full length AKT1 after 1 hr by IMAP assay.
RAC-alpha serine/threonine-protein kinase (Homo sapiens), sequence (P31749 whole entry, the tested form may be a part): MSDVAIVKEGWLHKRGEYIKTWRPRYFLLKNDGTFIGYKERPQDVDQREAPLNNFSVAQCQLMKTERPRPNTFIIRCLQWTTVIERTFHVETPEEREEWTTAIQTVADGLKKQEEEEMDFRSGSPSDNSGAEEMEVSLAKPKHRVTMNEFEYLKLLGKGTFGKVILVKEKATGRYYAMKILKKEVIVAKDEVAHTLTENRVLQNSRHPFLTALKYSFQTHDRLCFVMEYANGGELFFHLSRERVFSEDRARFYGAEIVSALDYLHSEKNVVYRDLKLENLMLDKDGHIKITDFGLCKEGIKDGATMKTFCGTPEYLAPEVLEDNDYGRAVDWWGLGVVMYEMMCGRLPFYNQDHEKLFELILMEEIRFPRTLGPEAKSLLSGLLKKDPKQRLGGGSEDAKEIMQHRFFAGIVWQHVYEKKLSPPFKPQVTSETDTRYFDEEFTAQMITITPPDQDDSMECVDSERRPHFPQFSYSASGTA
The nature of assay [7]: Selectivity ratio of IC50 for GST-tagged recombinant INSR catalytic domain to IC50 for GST-tagged full length recombinant ITK.

IC50, inhibition and Ratio IC50 data for 20 compounds are collected here from ChEMBL document CHEMBL1165955, “Synthesis and biological evaluation of novel (4 or 5-aryl)pyrazolyl-indoles as inhibitors of interleukin-2 inducible T-cell kinase (ITK)” (Bioorg Med Chem, 2010).

Activity calls are given as the source filed them. No cut-off for these calls is given here.

Glycogen synthase kinase-3 beta, sequence (P49841 whole entry): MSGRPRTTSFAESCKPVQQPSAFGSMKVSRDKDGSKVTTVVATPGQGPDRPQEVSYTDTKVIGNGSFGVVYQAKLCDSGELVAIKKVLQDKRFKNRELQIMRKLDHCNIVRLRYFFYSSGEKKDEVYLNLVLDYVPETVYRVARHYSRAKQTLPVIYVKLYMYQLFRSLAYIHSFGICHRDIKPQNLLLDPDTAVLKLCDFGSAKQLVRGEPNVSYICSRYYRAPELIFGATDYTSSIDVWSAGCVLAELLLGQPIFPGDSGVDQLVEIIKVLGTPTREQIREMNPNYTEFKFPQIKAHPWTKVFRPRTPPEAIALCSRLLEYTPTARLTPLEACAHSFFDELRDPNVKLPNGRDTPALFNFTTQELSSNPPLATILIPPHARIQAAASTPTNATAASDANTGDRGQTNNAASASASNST

As usually defined, the IC50 is the point on the concentration scale where inhibition reaches its midpoint. `Cc1oncc1CNC(=O)c1ccc2cc(-c3cc(-c4ccccc4)[nH]n3)[nH]c2c1`: the 50% inhibitory concentration (IC50) in assay [1] is 1820 nM.

On to `Cn1cncc1CNC(=O)c1ccc2cc(-c3cc(Cc4ccccc4)[nH]n3)[nH]c2c1`, for which the IC50 was 31600 nM in assay [2]; 5010 nM on Insulin receptor; “Not Active” in assay [3]; 630 nM in assay [1]; “Not Active” in assay [4].

For the compound `CNC(=O)c1ccc2c(CNCc3ccncc3)c(-c3cc(Cc4ccccc4)[nH]n3)[nH]c2c1`, the IC50 in assay [1] was determined as 5000 nM.

`Cn1nccc1CNC(=O)c1ccc2cc(-c3n[nH]cc3-c3ccccc3)[nH]c2c1`: the IC50 in assay [2] was determined as 160 nM; at Insulin receptor it was 9330 nM; in assay [3] (read-out: IC50) it was 7080 nM; in assay [1], 630 nM; in assay [4] (read-out: IC50) it was 1260 nM.

Turning to `Cn1cncc1CNC(=O)c1ccc2c(CN3CCOCC3)c(-c3cc(Cc4ccccc4)[nH]n3)[nH]c2c1`, the concentration for half-maximal inhibition (IC50) in assay [1] is 630 nM.

In the case of `CC(C)CN(C)C(=O)c1ccc2cc(-c3cc(Cc4ccccc4)[nH]n3)[nH]c2c1`, the IC50 result in assay [5] is “Not Active”; on Insulin receptor, above 100000 nM; in assay [3] it was “Not Active”; in assay [1], 560 nM; in assay [4] it was “Not Active”. For the same compound, in assay [6], the inhibition entry is “inactive”.

For the compound `Cn1nccc1CNC(=O)c1ccc2cc(-c3cc(Cc4ccccc4)[nH]n3)[nH]c2c1`, the concentration for half-maximal inhibition (IC50) in assay [2] is 12600 nM; on Insulin receptor, 20000 nM; in assay [3], “Not Active”; in assay [1], 1000 nM; in assay [4], “Not Active”.

Regarding `CC(C)CN(C)C(=O)c1ccc2c(CNCc3ccc(F)cc3)c(-c3cc(Cc4ccccc4)[nH]n3)[nH]c2c1`, the IC50 in assay [1] amounted to 500 nM.

Regarding `CC(C)CN(C)C(=O)c1ccc2c(CO)c(-c3n[nH]cc3-c3ccccc3)[nH]c2c1`, in assay [1], the half-inhibitory concentration (IC50) is above 100000 nM.

In the case of `Cc1oncc1CNC(=O)c1ccc2cc(-c3n[nH]cc3-c3ccccc3)[nH]c2c1`, the IC50 was determined as 400 nM in assay [2]; 5750 nM at Insulin receptor; 5010 nM in assay [3] (read-out: IC50); 630 nM in assay [1]; 2290 nM in assay [4] (read-out: IC50).

For the compound `Cn1nccc1CNC(=O)c1ccc2cc(-c3cc(-c4ccccc4)[nH]n3)[nH]c2c1`, the IC50 in assay [1] was 3160 nM.

With `COc1ccc(CNCc2c(-c3n[nH]cc3-c3ccccc3)[nH]c3cc(C(=O)N(C)CC(C)C)ccc23)cc1`, the IC50 in assay [1] was 20400 nM.

Consider `Cn1cncc1CNC(=O)c1ccc2cc(-c3n[nH]cc3-c3ccccc3)[nH]c2c1`, for which the IC50 in assay [2] is 630 nM; on Insulin receptor, 7080 nM; in assay [3] (read-out: IC50) it was 10000 nM; in assay [1], 790 nM; in assay [4] (read-out: IC50), 540 nM.

As for `CC(C)CN(C)C(=O)c1ccc2cc(-c3cc(-c4ccccc4)[nH]n3)[nH]c2c1`, the 50% inhibitory concentration (IC50) in assay [1] came out at 850 nM.

`COCCNC(=O)c1ccc2cc(-c3n[nH]cc3-c3ccccc3)[nH]c2c1`: in assay [1], the 50% inhibitory concentration (IC50) was found to be 2510 nM.

`CC(C)CN(C)C(=O)c1ccc2c(CNCCCO)c(-c3n[nH]cc3-c3ccccc3)[nH]c2c1`: in assay [1], the IC50 was above 100000 nM.

For `Cn1nccc1CNC(=O)c1ccc2c(CO)c(-c3cc(Cc4ccccc4)[nH]n3)[nH]c2c1`, in assay [1], the concentration for half-maximal inhibition (IC50) is 1580 nM.

Regarding `COCCNC(=O)c1ccc2cc(-c3cc(-c4ccccc4)[nH]n3)[nH]c2c1`, the IC50 in assay [1] is 3160 nM.

As to `CC(C)CN(C)C(=O)c1ccc2cc(-c3n[nH]cc3-c3ccccc3)[nH]c2c1`, the concentration for half-maximal inhibition (IC50) is 3160 nM in assay [2]; above 10000 nM on Insulin receptor; “Not Active” in assay [3]; 330 nM in assay [1]; 6760 nM in assay [4] (read-out: IC50). The Ratio IC50 in assay [7] is above 30.

For `Cn1cncc1CNC(=O)c1ccc2cc(-c3cc(-c4ccccc4)[nH]n3)[nH]c2c1`, the IC50 in assay [1] worked out at 1260 nM.
